In patent publication US11859203B2, “Cell culture methods” (UCB BIOPHARMA SRL, priority 2017, dated 2024):

Tests used:
Assay type in all cases: cell-based, Chinese Hamster
[1] = tested on: cell line 1; experiment: Reproducibility in 2 L bioreactor, cell line 1, average of data sets 1 and 2 (Example 4); details: for cell growth (VCC) compared to control: from day 9, 2 L bioreactor, data sets 1 and 2
Description: (§1) The ability of cysteine/cystine derivatives to reduce color and acidic species of a recombinant protein preparation produced in cell culture was evaluated in a bioreactor for two cell lines. This model is more representative of the large-scale production than the shake flask due to the geometry and additional control. CHO-DG44 cells from cell line 1 and 2 were inoculated in 1300 mL of basal media at a seeding density of 0.35×10^6 cells/mL in 2 L stirred bioreactor (Sartorius). The cells were cultivated during 14 days in fed-batch mode. The cell cultures were agitated at 280 rpm and the DO was maintained at 40%. The cell culture was maintained at pH 7.0±0.2 with an automatic CO2 sparging regulation. Cells were cultured in a fed-batch mode with bolus addition of Feed every day of culture. The basal media contained 0.04 mmol/L of cysteine+0.38 mmol/L of cystine. The Feed contained 153.3 mmol/L of cystine. Over the entire 14-day production phase, the total volume of Feed added corresponded to 5.7% (w/w) of the culture start volume for cell line 1 and to 3.1% (w/w) of the culture start volume for cell line 2.
(§2) The cysteine present in the Feed was replaced by different cysteine- and cystine derivatives at different percentages as presented in Table 2. A condition with only 50% of cysteine was added to test whether the improvements observed were due to the cysteine derivative or to the reduction of cysteine only. Osmolality was daily monitored using an osmometer from Advanced instrument. Off line pH, dissolved O2 and dissolved CO2 were daily monitored using a Nova Biomedical Phox (Nova biomedical). Metabolites concentrations were daily determined using a CedexBioHT system (Roche). Viable cell concentration and cell viability were measured daily using a ViCell automated cell counter (Beckman Coulter). The cell culture fluid was collected daily by centrifuging 1 mL of cell culture fluid for determination of antibody titer by HPLC prot A (waters) or using protein-L Octet measurement (Pall). At the end of the 14 days of culture, the cell culture fluid was harvested by centrifugation. The supernatant was then purified using a protein-A or L affinity chromatography (GE). The protein-A or L eluates were used for the molecular weight determination using UPLC size exclusion (Waters) and for the charge variants determination using isocapillary focusing (PROTEINSIMPLE iCE3). Another part of the protein-A eluates (only from cell line 1) was concentrated to 40 mg/mL using Amicon centricon centrifugal filter devices (Millipore). Color intensity of the concentrated antibody composition was measured in the concentrated protein A eluates using a spectrophotometer by transmission (UltrascanPro) and compared to the CIE (commission internationale de l'éclairage) scale. The numerical results were normalized to the concentration of 40 mg/mL.
The reproducibility of the results was evaluated in bioreactor with cell line 1. The experiments of Example 3 were repeated with an additional control and a bioreactor with 50% S-sulfocysteine 50% Cysteine Feed. The data from the two experiments were analyzed to confirm the effect previously observed with cysteine/cystine derivatives.

[2] = tested on: CHO-DG44 cells producing a full-length antibody, mAb1; experiment: Fed-batch shake flask culture with cysteine in Feed replaced by cysteine/cystine derivatives (Example 1)
Description: The ability of cysteine/cystine derivatives to reduce color and acidic species of an antibody preparation produced recombinantly by host cells grown in cell culture was evaluated. For this experiment, a scale-down model in shake flask was used. CHO-DG44 cells producing a full-length antibody, mAb1, were inoculated in 100 mL of basal media at a seeding density of 0.35×10^6 cells/mL mAb1 comprises a light chain having the sequence as defined in SEQ ID NO: 9 and a heavy chain having the sequence as defined in SEQ ID NO: 10.
The shake flask vessels were 250 mL shake flasks (corning) disposed in an agitated incubator (Infors) protected from light. The cells were cultivated for 14 days at 36.8° C. with 80% humidity. The cell cultures were agitated at 140 rpm at the beginning of the process. The agitation was increased during the process progressively to reach 250 rpm to maintain a DO % at 40% in the shake flask, as is it done in a 2 L bioreactor process. The cell culture was maintained at pH 7.0±0.2 by decreasing the CO2 in the incubator from 5% before the process to 2% during the process. Cells were cultured in a fed-batch mode with bolus addition of Feed every day of culture. The basal media contained 0.04 mmol/L of cysteine+0.38 mmol/L of cystine. The Feed contained 153.3 mmol/L of cystine. Over the entire 14-day production phase, the total volume of Feed added corresponded to 4.47% (v/v) of the culture start volume.
The cysteine present in the Feed was replaced by different cysteine and cystine derivatives at different percentages as presented in Table 1. Osmolality was daily monitored using an osmometer from Advanced Instruments. Off line pH, dissolved O2 and dissolved CO2 were daily monitored using a model BioProfile pHOx® blood gas analyser (Nova Biomedical Corporation, Waltham, Mass.). Metabolites concentrations were daily determined using a CedexBioHT system (Roche). Viable cell concentration and cell viability were measured daily using a ViCell automated cell counter (Beckman Coulter). The cell culture fluid was collected daily by centrifuging 1 mL of cell culture fluid for determination of antibody titer using protein A HPLC (Waters). At the end of the 14 days of culture, the cell culture fluid was harvested by centrifugation. The supernatant was then purified using a protein-A affinity chromatography (MabSelect Sure, GE). […] The relative percentage of main, acidic (APG for Acidic Peak Group) and basic (BPG for Basic Peak Group) isoforms of the purified mAb was determined by Imaged Capillary Electrophoresis (PROTEINSIMPLE iCE3). […]
Color intensity of the concentrated antibody composition was measured in the concentrated protein A eluates using a spectrophotometer by transmission (UltrascanPro) and compared to the CIE (commission internationale de l'éclairage) scale. […]

[3] = tested on: CHO-DG44 cells from cell line 1; experiment: Fed-batch Ambr15 mini bioreactor culture, different replacement levels, cell line 1 (Example 5); details: for cell growth: 90% of cysteine/cystine in Feed replaced, Ambr15
Description: We tested different concentrations of cysteine/cystine derivatives on the improvement on the APG level of a recombinant protein preparation produced in cell culture cultivated in mini bioreactors. CHO-DG44 cells from cell line 1 were inoculated in 12 mL basal media at a seeding density of 0.35×10^6 cells/mL in Ambr15 bioreactors (Sartorius). The cells were cultivated in fed-batch mode during 14 days. The DO was maintained at 40% and the pH was maintained 7.0±0.2 with an automatic CO2 sparging regulation. Viable cell concentration and cell viability were measured daily using a ViCell automated cell counter (Beckman Coulter). Cells were cultured in a fed-batch mode with a daily bolus addition of Feed. The basal media contained 0.04 mmol/L cysteine+0.38 mmol/L cystine. The Feed contained 153.3 mmol/L of cystine. Over the entire 14-day production phase, the total volume of added Feed corresponded to 4.7% (v/v) of the culture start volume.
Different percentages of cysteine present in the Feed was replaced by different cysteine- and cystine analogs. Table 4 provides an overview of different percentages tested and their equivalence in molar ratio relative to cysteine or cystine. E.g. for N-Acetyl-L-cysteine 10% means that 10% molar amount of cysteine equivalent has been replaced by 10% molar amount of N-Acetyl-L-cysteine; for N,N′-Diacetyl-L-cystine, 10% means that 10 molar amount of cystine equivalent has been replaced with 10% molar amount of N,N′-Diacetyl-L-cystine. At the end of the 14 days of culture, the cell culture fluid was harvested by centrifugation. The supernatant was then purified using a protein-A affinity chromatography (GE). The protein-A eluates were used for the charge variants determination using isocapillary focusing (PROTEINSIMPLE iCE3).

[4] = tested on: CHO-DG44 cells from cell line 2; experiment: Fed-batch 2 L bioreactor culture with cysteine/cystine derivatives, cell line 2 (Example 3); details: 50% replacement; cell line 2, 2 L bioreactor
Description: as §1, §2

[5] = tested on: CHO-DG44 cells from cell line 1; experiment: Fed-batch 2 L bioreactor culture with cysteine/cystine derivatives, cell line 1 (Example 3); details: 50% replacement, cell line 1, 2 L bioreactor; for decrease of the b value level (color intensity) compared to control: 40 mg/mL
Description: as §1, §2

[6] = 50% replacement, compared to 50% cysteine feed
[7] = 50% replacement, data sets 1 and 2 average

| SMILES | specific productivity [1, 6] | average decrease of b value level (color intensity) compared to control [1, 7] [%] | decrease in antibody titer compared to the controls average [1, 7] | cell growth (VCC) compared to control ([1]; 50% replacement) | maximum viable cell concentration ([2]; 50% of cysteine in Feed replaced) | cell growth (viable cell concentration) compared to control ([2]; 100% of cysteine in Feed replaced by derivative, shake flask, 14 days) | main charge species level with respect to the control ([3]; 10-90% replacement) | cell growth [3] | maximum reduction of acidic species level with respect to the control ([3]; with the increase of the percentage of replacement (10-90%)) [%] | decrease of acidic species level compared to control [4] [%] | main species level [4] | main species level [1, 7] | decrease of acidic species level compared to control [5] [%] | main species level [5] | decrease of the b value level (color intensity) compared to control [5] [%] | acidic species level with respect to the control ([3]; 10-90% replacement) | titer loss due to cysteine reduction in feed compensated ([1]; compared to 50% cysteine feed) [%] | decrease of b*value (color intensity) of the concentrated protein-A eluate compared to control ([2]; 50% replacement, day 14, eluate normalized to 40 mg/mL) [%] | decrease on acidic variants level compared to control ([2]; 50% replacement, day 14, iCE3) [%] | decrease of antibody titer compared to control [5] |
| --- | --- | --- | --- | --- | --- | --- | --- | --- | --- | --- | --- | --- | --- | --- | --- | --- | --- | --- | --- | --- |
| N[C@@H](CSS(=O)(=O)O)C(=O)O [S-sulfocysteine, S-Sulfocysteine, reference compound] | not to a specific impact | 5 | 25% | higher cell death than the control | 2×10^6 cells/mL | cells rapidly died on day 7 |  |  |  |  |  |  |  |  |  |  |  |  |  |  |
| CC(=O)N[C@@H](CSSC[C@H](NC(C)=O)C(=O)O)C(=O)O [N,N′-diacetyl-L-cystine, N,N′-Diacetyl-L-cystine] | did not impact the productivity | 14 | 10% | higher VCCs than the control conditions |  |  | positive difference with respect to the control | Inhibition of the growth | 27.5 | 8 | increase of main species | increase of main species | 5 | increase of main species | 2.5 |  |  |  |  |  |
| COC(=O)[C@H](CSSC[C@H](NC(C)=O)C(=O)OC)NC(C)=O [N,N′-diacetyl-L-cystine dimethylester, N,N′-diacetyl-L-cystine-dimethylester] | increase of the specific productivity | 30 | less than 5% |  |  |  |  | Inhibition of the growth |  | 13 | increase of main species |  | 15 | increase of main species | 25 | decrease of the acidic species level | 5 | 21.2 | 24.8 | less than 5% |
